Measurements published in patent US9096560B2, “5-heterocyclylalkyl-3-hydroxy-2-phenylcyclopent-2-enones as herbicides” (Syngenta Limited, priority 2008, dated 2015).

What was measured:
Type in all cases: in vivo
Lolium perenne (LOLPE) [1] = assay: Example B pre-emergence herbicidal test, LOLPE; conditions: Lolium perenne, 312 h, rate 250 g/ha, evaluated after 13 days, 100=total damage to plant, 0=no damage to plant
How it was run: (§1)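 Pre-emergence spray one day after sowing; vehicle acetone/water (50:50), 0.5% Tween 20. Percent damage (0 = no effect, 100 = plant killed) recorded 13 days later.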

[2] = tested on: Echinochloa crus-galli (ECHCG); assay: Example B pre-emergence herbicidal test, ECHCG; conditions: Echinochloa crus-galli, 312 h, rate 250 g/ha, evaluated after 13 days, 100=total damage to plant, 0=no damage to plant
How it was run: as §1

Avena fatua (AVEFA) [3] = assay: Example B pre-emergence herbicidal test, AVEFA; conditions: Avena fatua, 312 h, rate 250 g/ha, evaluated after 13 days, 100=total damage to plant, 0=no damage to plant
How it was run: as §1

Avena fatua (AVEFA) [4] = assay: Example B post-emergence herbicidal test, AVEFA; conditions: Avena fatua, 312 h, rate 250 g/ha, evaluated after 13 days, scale 0-100, read-out: Post-emergence activity AVEFA (100=total damage to plant; 0=no damage to plant)
How it was run: (§2)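 Plants grown from seed in standard soil for 8 days in a glasshouse (24/16 °C day/night, 14 h light, 65% humidity), then sprayed with an aqueous solution from the active ingredient formulated in acetone/water (50:50) with 0.5% Tween 20. Damage scored after 13 days, 0 (none) to 100 (total).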

[5] = tested on: Alopecurus myosuroides (ALOMY); assay: Example B post-emergence herbicidal test, ALOMY; conditions: Alopecurus myosuroides, 312 h, rate 250 g/ha, evaluated after 13 days, scale 0-100, read-out: Post-emergence activity ALOMY (100=total damage to plant; 0=no damage to plant)
How it was run: as §2

[6] = tested on: Alopecurus myosuroides (ALOMY); assay: Example B pre-emergence herbicidal test, ALOMY; conditions: Alopecurus myosuroides, 312 h, rate 250 g/ha, evaluated after 13 days, 100=total damage to plant, 0=no damage to plant
How it was run: as §1

[7] = tested on: Echinochloa crus-galli (ECHCG); assay: Example B post-emergence herbicidal test, ECHCG; conditions: Echinochloa crus-galli, 312 h, rate 250 g/ha, evaluated after 13 days, scale 0-100, read-out: Post-emergence activity ECHCG (100=total damage to plant; 0=no damage to plant)
How it was run: as §2

Lolium perenne (LOLPE) [8] = assay: Example B post-emergence herbicidal test, LOLPE; conditions: Lolium perenne, 312 h, rate 250 g/ha, evaluated after 13 days, scale 0-100, read-out: Post-emergence activity LOLPE (100=total damage to plant; 0=no damage to plant)
How it was run: as §2

Compound | pest or weed control at 250 g/ha (Lolium perenne (LOLPE) [1]) [%] | pest or weed control at 250 g/ha [2] [%] | pest or weed control at 250 g/ha (Avena fatua (AVEFA) [3]) [%] | pest or weed control at 250 g/ha (Avena fatua (AVEFA) [4]) [%] | pest or weed control at 250 g/ha [5] [%] | pest or weed control at 250 g/ha [6] [%] | pest or weed control at 250 g/ha [7] [%] | pest or weed control at 250 g/ha (Lolium perenne (LOLPE) [8]) [%]
Cc1cc(C)c(C2C(=O)CC(CC3CCN(C(=O)c4cc(F)c(Cl)nc4Cl)CC3)C2=O)c(C)c1 (centres unmarked) [Compound T106] | 20 | 20 | 30 | 10 | 40 | 20 | 30 | 30
Cc1cc(C)c(C2C(=O)CC(CC3CCN(C(=O)OC(C)C)CC3)C2=O)c(C)c1 (centres unmarked) [Compound T107] | 70 | 70 | 60 | 90 | 70 | 80 | 60 | 90
CCOC(=O)N1CCC(CC2CC(=O)C(c3c(C)cc(C)cc3C)C2=O)CC1 (centres unmarked) [Compound T108] | 50 | 60 | 40 | 70 | 70 | 10 | 40 | 70
Cc1cc(C)c(C2C(=O)CC(CC3CCN(C(=O)c4cccs4)CC3)C2=O)c(C)c1 (centres unmarked) [Compound T110] | 50 | 70 | 30 | 80 | 30 | 30 | 40 | 50
Cc1cc(C)c(C2C(=O)CC(CC3CCN(S(=O)(=O)C(F)(F)F)CC3)C2=O)c(C)c1 (centres unmarked) [Compound T112] | 50 | 30 | 20 | 30 | 40 | 40 | 30 | 30
Cc1cc(C)c(C2C(=O)CC(CC3CCN(C(=O)CC(C)C)CC3)C2=O)c(C)c1 (centres unmarked) [Compound T113] | 70 | 90 | 70 | 100 | 90 | 60 | 70 | 100
Cc1cc(C)c(C2C(=O)CC(CC3CCN(C(=O)C4CCCC4)CC3)C2=O)c(C)c1 (centres unmarked) [Compound T114] | 40 | 60 | 20 | 40 | 40 | 50 | 30 | 50
Cc1cc(C)c(C2C(=O)CC(CC3CCN(C(=O)c4c(C)noc4C)CC3)C2=O)c(C)c1 (centres unmarked) [Compound T118] | 40 | 30 | 20 | 80 | 60 | 40 | 40 | 30
Cc1cc(C)c(C2C(=O)CC(CC3CCN(C(=O)c4cc(C)on4)CC3)C2=O)c(C)c1 (centres unmarked) [Compound T119] | 80 | 100 | 30 | 80 | 90 | 40 | 90 | 90
Cc1cc(C)c(C2C(=O)CC(CC3CCN(C(=O)N4CCCCC4)CC3)C2=O)c(C)c1 (centres unmarked) [Compound T120] | 20 | 30 | 10 | 20 | 30 | 30 | 10 | 30
